{"source": "patent US12186303B2", "about": "“Feed additive for cattle comprising n-acetyl-l-tryptophan as active ingredient” (CJ CHEILJEDANG CORPORATION, priority 2018, dated 2025)", "key": {"[1]": {"test_system": "genes related to fat differentiation (PPARr, CEBPa, FABP4, LPL, and SCD) and muscle differentiation (MYF6, MyoD, and MyoG) of the loin tissue", "assay": "Real-time PCR of gene expression related to loin tissue development under heat stress conditions", "type": "in vivo, Korean native cattle", "source_text": "After grouping the animals by statistical analysis of initial body weights, the animals were bred in 1.0×1.5 m^2 individual pens during the experiment period. The feed was offered based on an amount of dry matter of daily total mixed ration (TMR) per head. After 7 days of an adaptation period for N-acetyl-L-tryptophan (NALT), a mixture of 0.1% N-acetyl-L-tryptophan (NALT) and the total mixed ration was fed to individual animals every morning at 8 a.m. for 6 weeks, and water was available ad libitum. Total amounts of L-tryptophan ingested by the control and the experimental group (NALT-treated group) by feeding NALT were 6.0 g/day/head and 18.2 g/day/head, respectively. The experiment was performed such that the NALT-treated group ingested 12.2 g/day/head more L-tryptophan than the control. Meanwhile, results of growth performance analysis (body weight and average feed intake) and genetic analysis of loin tissue were obtained by statistically comparing and analyzing significant differences between the control and the NALT-treated group, and results of hematological analysis were obtained via statistical comparison and analysis depending on NALT treatment, experiment period (days), and interaction (treatment×days). These numerical values were expressed as average values, and a significance test was performed at the 5% level using Student's t-test by using a JMP 5.0 software package (SAS Institute Inc., Cary, NC, USA). Samples of loin tissue of the sentinel animals were obtained on the final day of the experiment (week 10). The samples were obtained using a biopsy gun for animals (TNT Research Co., Ltd., Gyeonggi-do, Republic of Korea), added to a 2 mL tube, and incubated in liquid nitrogen gas. After extraction of RNA from each tissue sample, real-time PCR was conducted to analyze expression levels of genes related to fat differentiation (PPARr, CEBPa, FABP4, LPL, and SCD) and muscle differentiation (MYF6, MyoD, and MyoG) of the loin tissue of each animal. Total RNA was isolated using the TRIzol RNA isolation protocol, and the amount of RNA was measured using a NanoDrop 1000 (Thermo Scientific, Seoul, Republic of Korea). The RNA integrity (RIN) was estimated using an RNA Nano 6000 Assay Kit of the Agilent Bioanalyzer 2100 system (Agilent Technologies, Richardson, USA), and an obtained RNA integrity number (RIN) was 6.5±0.27. After synthesizing cDNA from mRNA, real-time PCR was conducted to measure expression levels of the genes."}, "[2]": {"test_system": "Korean native steers", "assay": "Body weight and average daily gain according to NALT feeding under heat stress conditions", "type": "in vivo, Korean native cattle", "protocol": "In the present disclosure, 8 Korean native steers (15.9±0.16 months old on average) were selected and used. The experimental procedure and method were approved by the Institutional Animal Care and Use Committee at Konkuk University, Seoul, Republic of Korea (Approval No. KU17136). […] Analysis of chemical composition (moisture, crude protein, crude fat, crude ash, etc.) and amino acids (19 types) of the basal diet stored at −20° C. was performed, and the results are shown in Table 3. After grouping the animals by statistical analysis of initial body weights, the animals were bred in 1.0×1.5 m^2 individual pens during the experiment period. The feed was offered based on an amount of dry matter of daily total mixed ration (TMR) per head. After 7 days of an adaptation period for N-acetyl-L-tryptophan (NALT), a mixture of 0.1% N-acetyl-L-tryptophan (NALT) and the total mixed ration was fed to individual animals every morning at 8 a.m. for 6 weeks, and water was available ad libitum. Total amounts of L-tryptophan ingested by the control and the experimental group (NALT-treated group) by feeding NALT were 6.0 g/day/head and 18.2 g/day/head, respectively. The experiment was performed such that the NALT-treated group ingested 12.2 g/day/head more L-tryptophan than the control. Meanwhile, results of growth performance analysis (body weight and average feed intake) and genetic analysis of loin tissue were obtained by statistically comparing and analyzing significant differences between the control and the NALT-treated group, and results of hematological analysis were obtained via statistical comparison and analysis depending on NALT treatment, experiment period (days), and interaction (treatment×days). These numerical values were expressed as average values, and a significance test was performed at the 5% level using Student's t-test by using a JMP 5.0 software package (SAS Institute Inc., Cary, NC, USA). Temperature (° C.) and relative humidity (%) were recorded every day during a one-week adaptation period and a 6-week experiment period using a portable temperature and humidity meter. Average temperature and average relative humidity of each week were calculated using the temperature and relative humidity recorded during the total experiment period. In addition, a temperature-humidity index (THI) was calculated using temperature and humidity as shown in the following equation, and heat stress state may be diagnosed using the THI as an index feature of a heat load. THI=(1.8×T+32)−[0.55−0.0055×RH)×(1.8×T−26.8) Initial weight (week 0), intermediate weight (week 5), and end weight (week 10) of sentinel animals were measured, i.e., three times in total, before offering morning feed. The average daily gain (ADG) of the sentinel animals was calculated by dividing the differences in weight, between the initial weight and the intermediate weight and between the intermediate weight and the end weight, by the total number of days of the experiment."}, "[3]": {"conditions": "0.1% NALT, week 10, control = 1.00000"}}, "data": [{"smiles": "CC(=O)N[C@@H](Cc1c[nH]c2ccccc12)C(=O)O", "note": "[NALT, N-acetyl-L-tryptophan]", "values": [{"measurement": "Gene expression level of SCD compared to the control", "setting": "[1]", "value": "tended to be higher"}, {"measurement": "C/EBPα expression level in loin tissue", "setting": "[1]; [3]", "value": 0.8053}, {"measurement": "FABP4 expression level in loin tissue", "setting": "[1]; [3]", "value": 1.501}, {"measurement": "LPL expression level in loin tissue", "setting": "[1]; [3]", "value": 1.774}, {"measurement": "MYF6 expression level in loin tissue", "setting": "[1]; [3]", "value": 1.093}, {"measurement": "MyoD expression level in loin tissue", "setting": "[1]; [3]", "value": 1.045}, {"measurement": "MyoG expression level in loin tissue", "setting": "[1]; [3]", "value": 2.086}, {"measurement": "PPARγ expression level in loin tissue", "setting": "[1]; [3]", "value": 1.301}, {"measurement": "SCD expression level in loin tissue", "setting": "[1]; [3]", "value": 1.448}, {"measurement": "Expression levels of MYF6 and MyoG and of lipolysis/fat transport genes (FABP4 and LPL) in loin tissue compared to the control", "setting": "[1]; p<0.05", "value": "higher"}, {"measurement": "Expression of muscle differentiation-related gene (MyoD) and fat differentiation-related genes (C/EBPα and PPARγ) compared to the control", "setting": "[1]; p>0.05", "value": "No statistically significant difference"}, {"measurement": "Body weight", "setting": "[2]; heat stress, 0.1% NALT, Week 0 (initial weight)", "value": 428.8, "unit": "kg"}, {"measurement": "Body weight", "setting": "[2]; heat stress, 0.1% NALT, Week 5", "value": 480.8, "unit": "kg"}, {"measurement": "Body weight", "setting": "[2]; heat stress, 0.1% NALT, Week 10", "value": 510.5, "unit": "kg"}, {"measurement": "ADG", "setting": "[2]; heat stress, 0.1% NALT, week 0 to week 5", "value": 1.49, "unit": "kg/day"}, {"measurement": "Total ADG", "setting": "[2]; heat stress, 0.1% NALT, week 0 to week 10", "value": 1.17, "unit": "kg/day"}, {"measurement": "ADG", "setting": "[2]; heat stress, 0.1% NALT, week 5 to week 10", "value": 0.85, "unit": "kg/day"}, {"measurement": "Average daily gain compared to the control", "setting": "[2]; period where the THI was over 80 (high heat stress)", "value": "significantly increased"}]}]}
